Each block holds one molecule with its values, some of them ahead of it.
Tests used:
[1] = Half life in human plasma; assay type: ADME, cell-free
[2] = Half life in human blood; assay type: ADME, tissue-based
[3] = Half life of compound in human plasma; assay type: ADME, cell-free
[4] = Half life of compound in PBS buffer at pH 7.4; assay type: physicochemical
[5] = Half life of compound in PBS buffer at pH 7.4 at 50 uM by HPLC analysis; assay type: physicochemical
[6] = Half life in human plasma at 10 uM; assay type: ADME, cell-free
[7] = Half life in human plasma measured after 2 days
[8] = Half life in human liver microsomes at 1 uM measured up to 30 mins by LC-MS/MS analysis; assay type: ADME, Microsome
[9] = Half life in human plasma by LC-MS/MS analysis; assay type: ADME, cell-free

SMILES: CC(=O)Oc1ccccc1C(=O)O[C@@H]1CO[C@H]2[C@@H]1OC[C@@H]2OC(=O)c1ccccc1O
half-life [2]: 1 min

SMILES: CC(=O)Oc1ccccc1C(=O)O[C@H]1CO[C@H]2[C@@H]1OC[C@H]2OC(=O)c1ccccc1OC(C)=O
half-life [3]: 1 min

SMILES: COc1ccccc1COC1(C)OC(=O)c2ccccc2O1 (centres undefined)
half-life [4]: 26.7 min

SMILES: CC(=O)Oc1ccccc1C(=O)O[C@H]1CO[C@H]2[C@@H]1OC[C@H]2O[N+](=O)[O-]
t1/2 [9]: 0.183 min

Further lines, results first:

half-life [1]: 14 min
SMILES: CC(=O)Oc1ccccc1C(=O)OC[S+](C)[O-] (centres undefined)

half-life at 50 µM [5]: 57 min | half-life at 10 µM [6]: < 1 min
SMILES: CC(=O)Oc1ccccc1C(=O)OCOC(=O)c1ccc(OCCCO[N+](=O)[O-])c(OC(=O)CCN)c1

half-life at 48 h [7]: 15 min
SMILES: CC(=O)Oc1ccccc1C(=O)Oc1ccccc1C=O

half-life at 1 µM [8]: 28 min
SMILES: CCOP(=O)(OCC)OCC(COC(=O)c1ccccc1OC(C)=O)OP(=O)(OCC)OCC (centres undefined)

Reference: ChEMBL document CHEMBL5233234, “True or false? Challenges and recent highlights in the development of aspirin prodrugs” (Eur J Med Chem, 2020)
